Molecules are shown by their SMILES.

By IC50 is commonly meant the concentration that inhibits the measured activity by half.

This test addresses T1, KDM5A (Homo sapiens, UniProt P29375).
T1 construct: C-terminal FLAG-tagged KDM5A^1-1090 was purchased from BPS Biosciences; FLAG (C); purchased BPS Biosciences
T1 sequence (P29375 1-1090): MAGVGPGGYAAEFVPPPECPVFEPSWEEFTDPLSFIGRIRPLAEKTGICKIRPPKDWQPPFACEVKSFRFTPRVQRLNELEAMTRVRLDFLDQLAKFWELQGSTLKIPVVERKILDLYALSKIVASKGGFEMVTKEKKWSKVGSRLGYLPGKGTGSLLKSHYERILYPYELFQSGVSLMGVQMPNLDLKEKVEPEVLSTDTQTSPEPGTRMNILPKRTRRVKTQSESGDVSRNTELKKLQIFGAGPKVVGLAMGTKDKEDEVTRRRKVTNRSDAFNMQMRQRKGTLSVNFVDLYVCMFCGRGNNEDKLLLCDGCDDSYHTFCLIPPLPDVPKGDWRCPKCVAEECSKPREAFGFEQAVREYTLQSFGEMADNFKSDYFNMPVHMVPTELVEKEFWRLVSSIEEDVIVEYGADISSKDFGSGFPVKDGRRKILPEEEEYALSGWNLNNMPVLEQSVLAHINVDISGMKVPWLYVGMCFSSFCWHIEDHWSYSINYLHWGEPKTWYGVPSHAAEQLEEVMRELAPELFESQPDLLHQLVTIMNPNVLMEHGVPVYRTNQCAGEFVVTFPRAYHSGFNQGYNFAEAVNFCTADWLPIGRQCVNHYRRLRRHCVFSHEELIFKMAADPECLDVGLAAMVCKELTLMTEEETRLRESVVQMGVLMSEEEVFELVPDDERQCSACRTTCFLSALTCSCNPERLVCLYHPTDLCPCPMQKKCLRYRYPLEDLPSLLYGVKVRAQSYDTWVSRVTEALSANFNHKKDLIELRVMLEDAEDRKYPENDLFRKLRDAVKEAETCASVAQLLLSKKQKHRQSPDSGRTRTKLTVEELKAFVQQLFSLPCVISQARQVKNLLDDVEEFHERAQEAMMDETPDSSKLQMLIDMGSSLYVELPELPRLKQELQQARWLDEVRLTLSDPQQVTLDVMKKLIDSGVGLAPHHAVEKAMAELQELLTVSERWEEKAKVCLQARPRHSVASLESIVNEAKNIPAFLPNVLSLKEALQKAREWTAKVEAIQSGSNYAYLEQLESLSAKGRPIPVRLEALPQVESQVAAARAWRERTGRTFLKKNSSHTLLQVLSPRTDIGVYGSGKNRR
The test is described as follows: KDM5A Assay (SAMDI mass spectrometry demethylase assay). The class given is biochemical. As to conditions: C-terminal FLAG-tagged KDM5A 1-1090; class symbols; read-out: 5A IC50. In outline:
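FLAG-tagged KDM5A 1-1090 (20 nM) preincubated 30 min with compound in pH 8.0 HEPES buffer with ascorbate, Fe(II), TCEP, then reacted 150 min at 25 °C with H3K4me3 peptide (250 nM) and 2-oxoglutarate (15 μM). Formic acid-quenched; SAMDI-MS substrate/product AUC conversion; IC50 from dose-response.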
Consider `Cc1c(Nc2cnccc2C(=O)O)nn(CCN2CCC(F)(F)CC2)c1-c1ccccc1` [Compound 67, 3-((1-(2-(4,4-difluoropiperidin-1-yl)ethyl)-4-methyl-5-phenyl-1H-pyrazol-3-yl)amino)isonicotinic acid], for which the half-maximal inhibitory concentration (IC50) fell in the range of 0.001 to 0.1 µM.

`Cc1c(Nc2cnccc2C(=O)O)cnn1C1CCNCC1` [Compound 68, 3-((5-methyl-1-(piperidin-4-yl)-1H-pyrazol-4-yl)amino)isonicotinic acid]: the IC50 was 1 to 10 µM.

With `Cc1nn(C2CCNCC2)cc1Nc1cnccc1C(=O)O` [Compound 69, 3-((3-methyl-1-(piperidin-4-yl)-1H-pyrazol-4-yl)amino) isonicotinic acid], the IC50 lay within 0.1 to 1 µM.

Take `Cc1nn(-c2ccccc2C#N)cc1Nc1cnccc1C(=O)O` [Compound 70, 3-((1-(2-cyanophenyl)-3-methyl-1H-pyrazol-4-yl)amino) isonicotinic acid]: the IC50 lay within 1 to 10 µM.

In the case of `Cc1cn(-c2ccccc2C#N)nc1Nc1cnccc1C(=O)O` [Compound 71, 3-((1-(2-cyanophenyl)-4-methyl-1H-pyrazol-3-yl)amino) isonicotinic acid], the IC50 fell in the range of 0.001 to 0.1 µM.

In the case of `O=C(O)c1ccncc1Nc1nn(C2CCOCC2)cc1-c1ccccc1` [Compound 72, 3-((4-phenyl-1-(tetrahydro-2H-pyran-4-yl)-1H-pyrazol-3-yl)amino)isonicotinic acid], the 50% inhibitory concentration (IC50) was 0.1 to 1 µM.

On to `O=C(O)c1ccncc1Nc1nn(CCC(F)(F)F)cc1-c1ccccc1` [Compound 73, 3-((4-phenyl-1-(3,3,3-trifluoropropyl)-1H-pyrazol-3-yl)amino) isonicotinic acid], for which the IC50 was 0.001 to 0.1 µM.

In the case of `O=C(O)c1ccncc1Nc1nn(CCC(F)(F)F)cc1-c1ccncc1` [Compound 74, 3-((4-(pyridin-4-yl)-1-(3,3,3-trifluoropropyl)-1H-pyrazol-3-yl)amino)isonicotinic acid], the IC50 lay in the range of 0.1 to 1 µM.

On to `COc1ccc(-n2nc(C)c(Nc3cnccc3C(=O)O)c2C)cc1` [Compound 75, 3-((1-(4-methoxyphenyl)-3,5-dimethyl-1H-pyrazol-4-yl)amino)isonicotinic acid], for which the IC50 lay within 10 to 100 µM.

Take `Cc1nn(-c2ccc(O)cc2)c(C)c1Nc1cnccc1C(=O)O` [Compound 76, 3-((1-(4-hydroxyphenyl)-3,5-dimethyl-1H-pyrazol-4-yl)amino)isonicotinic acid]: the half-maximal inhibitory concentration (IC50) was in the range of 10 to 100 µM.

Consider `Cc1nn(-c2ccccc2)c(C)c1Nc1cnccc1C(=O)O` [Compound 77, 3-((3,5-dimethyl-1-phenyl-1H-pyrazol-4-yl)amino)isonicotinic acid], for which the IC50 lay within 10 to 100 µM.

As for `Cc1cc(Nc2cnccc2C(=O)O)n(C2CCOCC2)n1` [Compound 78, 3-((3-methyl-1-(tetrahydro-2H-pyran-4-yl)-1H-pyrazol-5-yl)amino) isonicotinic acid], the 50% inhibitory concentration (IC50) fell in the range of 1 to 10 µM.

Regarding `Cc1c(Nc2cnccc2C(=O)O)cnn1[C@H]1CC[C@@H](N)CC1` [Compound 79, 3-((1-((cis)-4-aminocyclohexyl)-5-methyl-1H-pyrazol-4-yl)amino)isonicotinic acid], the IC50 is 1 to 10 µM.

For the compound `Cc1c(Nc2cnccc2C(=O)O)cnn1C1CCN(C2CCC2)CC1` [Compound 96], the IC50 lay in the range of 1 to 10 µM.

With `Cc1nn(C2CCN(C(=O)c3ccccc3)CC2)cc1Nc1cnccc1C(=O)O` [Compound 97, 3-(1-(1-benzoylpiperidin-4-yl)-3-methyl-1H-pyrazol-4-ylamino) isonicotinic acid], the IC50 lay in the range of 0.1 to 1 µM.

As for `Cc1c(Nc2cnccc2C(=O)O)cnn1C1CCN(C(=O)c2ccccc2)CC1` [Compound 98, 3-(1-(1-benzoylpiperidin-4-yl)-5-methyl-1H-pyrazol-4-ylamino) isonicotinic acid], the IC50 is 1 to 10 µM.

On to `Cc1nn(C2CCN(CC(F)(F)F)CC2)cc1Nc1cnccc1C(=O)O` [Compound 99, 3-(3-methyl-1-(1-(2,2,2-trifluoroethyl)piperidin-4-yl)-1H-pyrazol-4-ylamino)isonicotinic acid], for which the half-inhibitory concentration (IC50) was 0.1 to 1 µM.

With `Cc1c(Nc2cnccc2C(=O)O)cnn1C1CCN(CC(F)(F)F)CC1` [Compound 100, 3-(5-methyl-1-(1-(2,2,2-tri-fluoro-ethyl)piperidin-4-yl)-1H-pyrazol-4-ylamino)isonicotinic acid], the IC50 lay within 1 to 10 µM.

With `COC(=O)c1ccncc1Nc1cn(C2CCN(C(C)C)CC2)nc1C` [Compound 101, methyl 3-((1-(1-isopropylpiperidin-4-yl)-3-methyl-1H-pyrazol-4-yl)amino)isonicotinate], the IC50 is 10 to 100 µM.

For the compound `Cc1nn(C2CCN(C(C)C)CC2)cc1Nc1cnccc1C(=O)O` [Compound 102, 3-((1-(1-isopropylpiperidin-4-yl)-3-methyl-1H-pyrazol-4-yl)amino)isonicotinic acid], the IC50 was in the range of 0.1 to 1 µM.

As to `COC(=O)c1ccncc1Nc1cnn(C2CCN(C(C)C)CC2)c1C` [Compound 103, methyl 3-((1-(1-isopropylpiperidin-4-yl)-5-methyl-1H-pyrazol-4-yl)amino)isonicotinate], the IC50 lay within 10 to 100 µM.

In the case of `Cc1c(Nc2cnccc2C(=O)O)cnn1C1CCN(C(C)C)CC1` [Compound 104], the IC50 lay within 1 to 10 µM.

As to `Cc1nn(CCN(C)C)cc1Nc1cnccc1C(=O)O` [Compound 107, 3-(1-(2-(dimethylamino)ethyl)-3-methyl-1H-pyrazol-4-ylamino) isonicotinic acid], the IC50 is 0.1 to 1 µM.

In the case of `Cc1nn(C2CCCN(C)CC2)cc1Nc1cnccc1C(=O)O` (stereo not shown) [Compound 111, 3-(3-methyl-1-(1-methylazepan-4-yl)-1H-pyrazol-4-ylamino) isonicotinic acid], the IC50 was 10 to 100 µM.

In the case of `Cc1c(Nc2cnccc2C(=O)O)cnn1C1CCCN(C)CC1` (stereo not shown) [Compound 112, 3-((5-methyl-1-(1-methylazepan-4-yl)-1H-pyrazol-4-yl)amino)isonicotinic acid], the IC50 fell in the range of 0.1 to 1 µM.
